Test results reported in patent publication US9796711B2, “Substituted pyrazolo[3,4-b]pyridin-6-carboxylic acids and method of use” (AbbVie S.àr.l., priority 2015, dated 2017).

Target: T1, ΔF508-CFTR (Homo sapiens, UniProt P13569, DEL508-508)
T1 construct: host or cells: CFBE41o-, doxycycline-inducible
Test: CFTR cell surface levels using HRP-tagged ΔF508-CFTR expressing CFBE cells, intrinsic corrector capacity
Type: cell-based
Conditions: HRP-tagged ΔF508-CFTR CFBE41o- cells, compounds alone (intrinsic corrector capacity), 20 hours at 33° C.; for % Activation: positive control 3 μM corrector; for EC50: read-out: EC50
Description: Measuring CFTR Cell Surface Levels Using HRP-Tagged AF508-CFTR Expressing CFBE Cells
The HRP-tagged AF508-CFTR cell assay measures the expression of CFTR-ΔF508 at the plasma membrane. CFTR-ΔF508 has a folding defect leading to absence of protein at the plasma membrane. This assay is used to evaluate the capacity of compounds to increase the expression of CFTR-ΔF508 at the plasma membrane. The CFTR-ΔF508 is tagged with HRP (horse radish peroxidase enzyme) within the ECL4 (Extracellular loop 4) of CFTR (Phuan, P.-W. et al. Synergy-based small-molecule screen using a human lung epithelial cell line yields AF508-CFTR correctors that augment VX-809 maximal efficacy. Mol. Pharmacol. 86, 42-51 (2014)). When HRP-tagged AF508-CFTR is present at the plasma membrane, the HRP enzyme activity can be measured. The amount of CFTR-ΔF508 that can be rescued to the plasma membrane is correlated with the amount of functional enzyme that can be measured.
There are several ways to measure the capacity of compounds to rescue CFTR-ΔF508 to the plasma membrane; either compounds are evaluated on their own and the impact on plasma membrane levels is measured or compounds are evaluated in combination with a co-corrector, i.e. a compound that rescues CFTR-ΔF508 to the plasma membrane but rescue can be enhanced by addition of compounds due to a complementary mode of action.
Activity of Compounds for their Intrinsic Corrector Capacity:
For this purpose doxycycline-inducible AF508-CFTR-HRP expressing CFBE4lo-cells (obtained from Gergely Lukacs, McGill University) were maintained in MEM (Gibco; 31095) supplemented with 10% fetal bovine serum (Hyclone; SV30160.03) under puromycin (3 μg/mL) and G418 selection (0.2 mg/mL). For compound testing, cells were seeded at 4000 cells/well in white 384-well plates (Greiner; 781080) in 50 μL medium containing 0.5 μg/mL doxycycline and incubated for 68 hours at 37° C., 5% CO2. On day four, 10 μL test compounds diluted in PBS were added to the plates at a final DMSO concentration of 0.1%. All compound plates contained negative controls (DMSO) and positive controls (3 μM corrector, 3-[(2R,4R)-4-({[1-(2,2-difluoro-1,3-benzodioxol-5-yl)cyclopropyl]carbonyl}amino)-7-methoxy-3,4-dihydro-2H-chromen-2-yl]benzoic acid). Cell plates were incubated at 33° C., 5% CO2 for 20 hours. On day five, the cells were washed five times with phosphate-buffered saline, and HRP activity was assayed by the addition of 50 μL/well of HRP substrate (SuperSignal™ West Pico Chemiluminescent Substrate, Thermo Scientific; 34080). After incubation for 15 minutes in the dark, chemiluminescence was measured using a plate reader (EnVision®, Perkin Elmer). Raw data were normalized to percentage activity values using the equation: 100×(Sample−Negative control)/(Positive control−Negative Control).

T1 sequence (P13569 with tags, fused parts or gaps DEL508-508): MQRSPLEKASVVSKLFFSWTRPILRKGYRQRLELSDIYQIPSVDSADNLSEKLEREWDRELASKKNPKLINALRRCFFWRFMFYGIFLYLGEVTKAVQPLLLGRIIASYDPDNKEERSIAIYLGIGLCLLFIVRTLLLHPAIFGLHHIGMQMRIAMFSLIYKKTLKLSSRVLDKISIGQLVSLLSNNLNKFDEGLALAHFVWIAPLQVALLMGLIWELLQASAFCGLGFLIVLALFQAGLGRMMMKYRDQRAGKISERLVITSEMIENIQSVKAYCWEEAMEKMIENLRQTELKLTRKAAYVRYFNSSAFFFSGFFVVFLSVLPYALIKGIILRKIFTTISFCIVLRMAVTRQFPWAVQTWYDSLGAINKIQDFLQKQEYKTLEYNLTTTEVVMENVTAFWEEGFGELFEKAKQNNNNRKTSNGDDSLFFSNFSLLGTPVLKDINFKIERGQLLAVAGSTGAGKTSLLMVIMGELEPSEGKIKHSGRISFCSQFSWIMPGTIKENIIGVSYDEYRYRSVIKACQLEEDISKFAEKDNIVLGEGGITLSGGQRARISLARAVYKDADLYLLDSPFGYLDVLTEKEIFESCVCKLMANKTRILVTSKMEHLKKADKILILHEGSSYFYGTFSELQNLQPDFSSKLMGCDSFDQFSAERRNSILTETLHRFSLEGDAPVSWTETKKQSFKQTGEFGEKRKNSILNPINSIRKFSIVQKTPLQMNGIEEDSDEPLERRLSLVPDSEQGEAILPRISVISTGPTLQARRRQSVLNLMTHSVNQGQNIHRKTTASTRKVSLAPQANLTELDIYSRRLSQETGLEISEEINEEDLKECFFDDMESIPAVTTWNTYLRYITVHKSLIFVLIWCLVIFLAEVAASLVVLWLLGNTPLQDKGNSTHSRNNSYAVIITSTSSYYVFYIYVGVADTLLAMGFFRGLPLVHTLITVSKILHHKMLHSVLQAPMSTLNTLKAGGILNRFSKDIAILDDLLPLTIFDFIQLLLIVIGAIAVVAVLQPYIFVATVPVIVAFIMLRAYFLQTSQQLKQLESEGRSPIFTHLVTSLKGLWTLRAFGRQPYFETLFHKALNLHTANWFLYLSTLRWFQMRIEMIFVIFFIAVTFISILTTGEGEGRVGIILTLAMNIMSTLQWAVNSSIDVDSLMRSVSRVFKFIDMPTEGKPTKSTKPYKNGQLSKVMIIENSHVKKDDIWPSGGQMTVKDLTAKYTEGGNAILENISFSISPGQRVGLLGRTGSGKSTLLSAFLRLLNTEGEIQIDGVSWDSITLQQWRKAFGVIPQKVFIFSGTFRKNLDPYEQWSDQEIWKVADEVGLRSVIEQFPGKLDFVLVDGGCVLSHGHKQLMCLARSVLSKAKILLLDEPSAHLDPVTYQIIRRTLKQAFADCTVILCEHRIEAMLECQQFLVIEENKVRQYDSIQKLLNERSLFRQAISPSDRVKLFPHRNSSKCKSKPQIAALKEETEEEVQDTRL

Row | Compound | % Activation [%] | EC50 [nM]
1 | COc1ccc(-c2cc(C(=O)O)nc3c2c(C)nn3C2CCCC2)cc1 [compound 3, 1-cyclopentyl-4-(4-methoxyphenyl)-3-methyl-1H-pyrazolo[3,4-b]pyridine-6-carboxylic acid] | 46.83 | 3340
2 | COc1ccc(-c2cc(C(=O)O)nc3c2c(C)nn3CCC#N)cc1 [compound 4, 1-(2-cyanoethyl)-4-(4-methoxyphenyl)-3-methyl-1H-pyrazolo[3,4-b]pyridine-6-carboxylic acid] | 3.339 | > 10000
3 | Cc1nn(-c2cc(C(F)(F)F)[nH]n2)c2nc(C(=O)O)cc(-c3ccc(N4CCOCC4)cc3)c12 [compound 7, 3-methyl-4-[4-(morpholin-4-yl)phenyl]-1-[5-(trifluoromethyl)-1H-pyrazol-3-yl]-1H-pyrazolo[3,4-b]pyridine-6-carboxylic acid] | 5.355 | > 10000
4 | Cc1nn(-c2ccccc2)c2nc(C(=O)O)cc(-c3ccc(N4CCCCC4)cc3)c12 [compound 8, 3-methyl-1-phenyl-4-[4-(piperidin-1-yl)phenyl]-1H-pyrazolo[3,4-b]pyridine-6-carboxylic acid] | 91.055 | 754
5 | Cc1nn(-c2ccccc2)c2nc(C(=O)O)cc(-c3ccc(N4CCN(C)CC4)cc3)c12 [compound 9, 3-methyl-4-[4-(4-methylpiperazin-1-yl)phenyl]-1-phenyl-1H-pyrazolo[3,4-b]pyridine-6-carboxylic acid] | 31.76 | 3340
6 | Cc1nn(-c2cc(F)cc(F)c2)c2nc(C(=O)O)cc(-c3ccc(N4CCOCC4)cc3)c12 [compound 10, 1-(3,5-difluorophenyl)-3-methyl-4-[4-(morpholin-4-yl)phenyl]-1H-pyrazolo[3,4-b]pyridine-6-carboxylic acid] | 116.55 | 867
7 | Cc1nn(-c2cccc(Cl)c2)c2nc(C(=O)O)cc(-c3ccc(N4CCOCC4)cc3)c12 [compound 11, 1-(3-chlorophenyl)-3-methyl-4-[4-(morpholin-4-yl)phenyl]-1H-pyrazolo[3,4-b]pyridine-6-carboxylic acid] | 134.3 | 1380
8 | Cc1nn(-c2ccccc2)c2nc(C(=O)O)cc(-c3ccc(N4CCS(=O)(=O)CC4)cc3)c12 [compound 14, 4-[4-(1,1-dioxo-1λ^6,4-thiazinan-4-yl)phenyl]-3-methyl-1-phenyl-1H-pyrazolo[3,4-b]pyridine-6-carboxylic acid] | 58.56 | 3340
9 | CCOC(=O)c1nn(-c2ccccc2)c2nc(C(=O)O)cc(-c3ccc(N4CCOCC4)cc3)c12 [compound 16, 3-(ethoxycarbonyl)-4-[4-(morpholin-4-yl)phenyl]-1-phenyl-1H-pyrazolo[3,4-b]pyridine-6-carboxylic acid] | 92.93 | 3340
10 | Cc1nn(-c2cccc(Br)c2)c2nc(C(=O)O)cc(-c3ccc(N4CCOCC4)cc3)c12 [compound 18, 1-(3-bromophenyl)-3-methyl-4-[4-(morpholin-4-yl)phenyl]-1H-pyrazolo[3,4-b]pyridine-6-carboxylic acid] | 126.8 | 783
11 | COc1cccc(-n2nc(C)c3c(-c4ccc(N5CCOCC5)cc4)cc(C(=O)O)nc32)c1 [compound 21, 1-(3-methoxyphenyl)-3-methyl-4-[4-(morpholin-4-yl)phenyl]-1H-pyrazolo[3,4-b]pyridine-6-carboxylic acid] | 103.72 | 1060
12 | CC(C)c1nn(-c2ccccc2)c2nc(C(=O)O)cc(-c3ccc(N4CCCC4)cc3)c12 [compound 24, 1-phenyl-3-(propan-2-yl)-4-[4-(pyrrolidin-1-yl)phenyl]-1H-pyrazolo[3,4-b]pyridine-6-carboxylic acid] | 134.1 | 1830
13 | Cc1nn(-c2ccccc2)c2nc(C(=O)O)cc(-c3ccc(N4CCCC4)cc3)c12 [compound 25, 3-methyl-1-phenyl-4-[4-(pyrrolidin-1-yl)phenyl]-1H-pyrazolo[3,4-b]pyridine-6-carboxylic acid] | 93.1 | 1500
